Structures are written as SMILES. Calls of active or inactive are those of the source. The calls are words filed in the database; no cut-off is given here.

Test [1] deals with HeLa. Put plainly: Cell cycle arrest in human HeLa cells assessed as accumulation at G0/G1 phase at 10 uM after 24 hrs by FACS flow cytometric analysis (reference value: 69.9 +/- 2.41%). The format is functional.
For test [2], the system named is HeLa. Description: Induction of apoptosis in human HeLa cells at 10 uM after 24 hrs by annexin V-FITC/propidium iodide staining-based FACS flow cytometric analysis. The format is functional, cell-based.
A short description of test [3]: Inhibition of choline kinase in human HepG2 cells assessed as incorporation of [14C] from [methyl-14C]choline into phosphocholine after 20 mins by liquid scintillation counting analysis. The format is cell-based.
The subject of test [4] is HeLa. Put plainly: Cell cycle arrest in human HeLa cells assessed as accumulation at G2/M phase at 10 uM after 24 hrs by FACS flow cytometric analysis (reference value: 3.9 +/- 0.10%). The format is functional.
Test [5] concerns HeLa. Description: Cell cycle arrest in human HeLa cells assessed as accumulation at S phase at 10 uM after 24 hrs by FACS flow cytometric analysis (reference value: 25 +/- 2.53%). The format is functional.
For test [6], the system named is HeLa. Put plainly: Antiproliferative activity against human HeLa cells after 48 hrs by MTT assay. The format is functional, cell-based.
The target in a further test is Choline kinase alpha (Homo sapiens, UniProt P35790). Description: Binding affinity to human CK-alpha1 by tryptophan fluorescence spectroscopic analysis.
Sequence of Choline kinase alpha (P35790 whole entry): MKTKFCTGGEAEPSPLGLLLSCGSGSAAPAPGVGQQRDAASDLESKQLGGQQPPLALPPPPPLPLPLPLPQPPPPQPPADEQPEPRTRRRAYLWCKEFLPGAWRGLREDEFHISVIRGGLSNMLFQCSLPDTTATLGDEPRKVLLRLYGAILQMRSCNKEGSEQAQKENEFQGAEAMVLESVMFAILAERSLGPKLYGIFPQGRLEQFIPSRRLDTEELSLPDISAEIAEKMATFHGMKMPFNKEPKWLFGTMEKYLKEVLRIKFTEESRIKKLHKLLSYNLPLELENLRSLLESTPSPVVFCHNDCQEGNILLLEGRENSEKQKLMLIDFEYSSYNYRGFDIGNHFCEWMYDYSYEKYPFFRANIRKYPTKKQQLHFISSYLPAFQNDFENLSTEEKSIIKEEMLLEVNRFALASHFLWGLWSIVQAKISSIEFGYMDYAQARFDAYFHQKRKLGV
In test [7] the test system is HeLa. Description: Induction of apoptosis in human HeLa cells assessed as upregulation of caspase-3 protein expression after 12 to 48 hrs by Western blot analysis. The format is functional, cell-based.
A further test is filed under the species Homo sapiens. Put plainly: Selectivity ratio of Kd for human CK-beta to Kd for human CK-alpha1.
Test [8] concerns HeLa. Description: Induction of apoptosis in human HeLa cells at 10 uM after 24 hrs by annexin V-FITC/propidium iodide staining-based FACS flow cytometric analysis (reference value: 14.8%). The format is functional.
In test [9] the target is Choline/ethanolamine kinase (Homo sapiens, UniProt Q9Y259). Description: Binding affinity to human CK-beta by tryptophan fluorescence spectroscopic analysis.
Sequence of Choline/ethanolamine kinase (Q9Y259 whole entry): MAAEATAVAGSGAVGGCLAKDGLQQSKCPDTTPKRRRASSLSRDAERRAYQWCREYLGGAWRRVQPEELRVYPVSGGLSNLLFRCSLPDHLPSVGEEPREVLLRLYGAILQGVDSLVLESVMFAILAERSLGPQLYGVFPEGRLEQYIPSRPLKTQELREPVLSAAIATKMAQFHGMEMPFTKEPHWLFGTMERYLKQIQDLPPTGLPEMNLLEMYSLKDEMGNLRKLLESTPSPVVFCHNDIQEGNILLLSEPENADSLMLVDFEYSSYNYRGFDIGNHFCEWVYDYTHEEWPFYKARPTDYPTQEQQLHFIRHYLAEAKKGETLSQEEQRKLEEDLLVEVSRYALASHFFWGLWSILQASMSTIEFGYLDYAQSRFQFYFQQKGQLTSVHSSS

On to `CN(c1ccc(Cl)cc1)c1cc[n+](Cc2ccc(CCCCc3ccc(C[n+]4ccc(N5CCCC5)cc4)cc3)cc2)cc1.[Br-].[Br-]`, for which the Activity is on record as 83.3% in the test with HeLa [1], 1.3% in the test on HeLa [4] and 15.4% in the test on HeLa [5]. Also, in the test with HeLa [2], the outcome was Active. Moreover, the IC50 in test [3] was found to be 1.5 µM; in the test with HeLa [6] it was 2.1 µM.
Regarding `CN(c1ccc(Cl)cc1)c1cc[n+](Cc2ccc(C[n+]3ccc(N4CCCC4)cc3)cc2)cc1`, the values for the IC50 (in [3]; in the test with HeLa [6]) were 0.6 µM and 48.1 µM, respectively.
The like results for `CN(C)c1cc[n+](Cc2ccc(C[n+]3ccc(N(C)c4ccc(Cl)cc4)cc3)cc2)cc1` were, in that order, 0.9 µM and 24.6 µM.
Take `CN(c1ccc(Cl)cc1)c1cc[n+](Cc2ccc(CCc3ccc(C[n+]4ccc(N5CCCC5)cc4)cc3)cc2)cc1.[Br-].[Br-]`: the figures for the Activity in the test on HeLa [1], in the test with HeLa [4] and in the test on HeLa [5] were 77%, 2.2% and 20.8%, respectively. For the same compound, the outcome in the test on HeLa [2] was Active. Moreover, the IC50 worked out at 2.5 µM in test [3] and 9.4 µM in the test on HeLa [6].
In the case of `CN(C)c1cc[n+](Cc2ccc(C[n+]3ccc(N4CCCC4)cc3)cc2)cc1`, the IC50 in test [3] is 8 µM; in the test with HeLa [6], 15.9 µM.
As for `CN(C)c1cc[n+](Cc2ccc(-c3ccc(C[n+]4ccc(N5CCCC5)cc4)cc3)cc2)cc1.[Br-].[Br-]`, the Activity in the test on HeLa [1] is 72.8%; with HeLa [4], 2.7%; with HeLa [5], 24.5%. Also, the result in the test with HeLa [2] was Active. Also, the IC50 in test [3] is 0.8 µM; in the test on HeLa [6], 3.7 µM.
For the compound `CN(C)c1cc[n+](Cc2ccc(CCCCc3ccc(C[n+]4ccc(N5CCCC5)cc4)cc3)cc2)cc1.[Br-].[Br-]`, the results for the Activity in the test on HeLa [1], in the test with HeLa [4] and in the test on HeLa [5] were 77.8%, 2.8% and 19.2%, respectively. In addition, in the test on HeLa [2], the result was Active. The results for the IC50 (in [3]; with HeLa [6]) were 0.9 µM and 2.1 µM, respectively.
As to `CN(C)c1cc[n+](Cc2ccc(-c3ccc(C[n+]4ccc(N(C)c5ccc(Cl)cc5)cc4)cc3)cc2)cc1`, the equilibrium dissociation constant (Kd) on Choline kinase alpha is 0.62 µM. Moreover, the IC50 is 1.5 µM in test [3] and 11.7 µM in the test on HeLa [6].
As for `CN(C)c1cc[n+](Cc2ccc(CCc3ccc(C[n+]4ccc(N5CCCC5)cc4)cc3)cc2)cc1.[Br-].[Br-]`, the Activity is recorded as 72.5% in the test on HeLa [1], 2.6% in the test with HeLa [4] and 24.9% in the test with HeLa [5]. The outcome with HeLa [2] was Active. In addition, the Kd on Choline kinase alpha was 0.4 µM. Besides, the IC50 in test [3] is 1.2 µM; in the test with HeLa [6] it was 8.6 µM.
On to `CN(C)c1cc[n+](Cc2ccc(CCc3ccc(C[n+]4ccc(N(C)c5ccc(Cl)cc5)cc4)cc3)cc2)cc1.[Br-].[Br-]`, for which the results for the Activity in the test on HeLa [1], in the test on HeLa [4] and in the test with HeLa [5] were 83.3%, 1.8% and 14.9%, respectively. Further, the result in the test on HeLa [2] was Active. In addition, the IC50 was found to be 0.7 µM in [3] and 1.3 µM with HeLa [6].
In the case of `CN(c1ccc(Cl)cc1)c1cc[n+](Cc2ccc(-c3ccc(C[n+]4ccc(N5CCCC5)cc4)cc3)cc2)cc1.[Br-].[Br-]`, the Activity in the test on HeLa [1] is on record as 73.1%; in the test with HeLa [4], 3.1%; in the test on HeLa [5], 23.8%. The outcome in the test with HeLa [2] was Active. Moreover, the results for the IC50 (in test [3]; in the test on HeLa [6]) were 2.2 µM and 4.1 µM, respectively.
On to `CN(C)c1cc[n+](Cc2ccc(CCCCc3ccc(C[n+]4ccc(N(C)c5ccc(Cl)cc5)cc4)cc3)cc2)cc1.[Br-].[Br-]`, for which the Activity with HeLa [1] was 85.9%; with HeLa [7] it was “Dose-dependent effect”; with HeLa [4] it was 0.9%; in the test on HeLa [8] it was 55.6%; with HeLa [5] it was 12.8%. The result in the test on HeLa [2] was Active. Besides, the Selectivity ratio in the test filed under Homo sapiens is 200. Moreover, the values for the IC50 (in test [3]; with HeLa [6]) were 1.2 µM and 1.9 µM, respectively. In test [9], this compound had a Kd of 22 µM.
As for `CC(=O)O[C@H]1C(=O)[C@@]2(C)[C@H]([C@H](OC(=O)c3ccccc3)[C@]3(O)C[C@H](OC(=O)[C@H](O)[C@@H](NC(=O)c4ccccc4)c4ccccc4)C(C)=C1C3(C)C)[C@]1(OC(C)=O)CO[C@@H]1C[C@@H]2O` [PACLITAXEL], the Activity entry in the test on HeLa [7] is “Dose-dependent effect”. The compound also gave an IC50 in the test with HeLa [6] of 8 ng/mL.
